Experimental data: patent publication US20250032476A1, “ALPHA-2A ADRENERGIC RECEPTOR MODULATORS AND USES THEREOF” (The Regents of the University of California, priority 2021, published 2025)
Where two headings read alike, the source gives them in different places.

Tests used:
[1] = Pharmacokinetics in mice (plasma, brain, CSF); assay type: in vivo
α2AAR-S215^5.42A = α2AAR-S215^5.42A (Homo sapiens (Human), UniProt P08913, S215A); assay: Gi activation (BRET) at α2AAR S215^5.42A mutant; assay type: cell-based; settings: versus wild type
α2AAR-S215^5.42A, sequence (P08913 whole entry S215A): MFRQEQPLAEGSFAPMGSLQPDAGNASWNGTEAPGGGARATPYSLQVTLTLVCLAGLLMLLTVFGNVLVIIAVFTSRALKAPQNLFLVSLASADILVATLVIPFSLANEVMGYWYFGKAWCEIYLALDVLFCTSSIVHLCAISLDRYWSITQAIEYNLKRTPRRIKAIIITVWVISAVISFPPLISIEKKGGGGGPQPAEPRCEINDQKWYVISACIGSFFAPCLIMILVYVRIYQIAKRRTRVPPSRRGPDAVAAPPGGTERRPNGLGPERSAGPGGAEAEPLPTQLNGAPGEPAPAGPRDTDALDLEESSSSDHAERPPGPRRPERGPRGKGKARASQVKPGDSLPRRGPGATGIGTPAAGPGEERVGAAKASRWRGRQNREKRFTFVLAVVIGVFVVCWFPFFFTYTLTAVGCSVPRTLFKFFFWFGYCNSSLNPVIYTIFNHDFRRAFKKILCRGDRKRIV
Procedure: Investigating the sensitivity of selected ligands to the receptor mutants α2AAR-D128^3.32A, α2AAR-D128^3.32T, α2AAR-D128^3.32L, α2AAR-S215^5.42A, α2AAR-Y409^6.55A, α2AAR-Y409^6.55T, α2AAR-Y409^6.55F, α2AAR-F427^7.39F, α2AAR-Y431^7.43A, and α2AAR-Y431^7.43F was determined by monitored G protein stimulation as described above transfecting the appropriate receptor together with Gαi1-RLucII and Gβ1/Gγ1-GFP10. […] Three to ten experiments were done in duplicate.
The sensitivity of selected ligands to the receptor mutants α2AAR-D128^3.32A, α2AAR-D128^3.32T, α2AAR-D128^3.32L, α2AAR-S215^5.42A, α2AAR-Y409^6.55A, α2AAR-Y409^6.55T, α2AAR-Y409^6.55F, α2AAR-F427^7.39F, α2AAR-Y431^7.43A, and α2AAR-Y431^7.43F was monitored by G protein activation as described above transfecting the appropriate receptor together with Gαi1-RLucII and Gβ1/Gγ2-GFP10. […] Similarly, the effect of the α2AAR-D128^3.32A, α2AAR-S215^5.42A, α2AAR-Y409^6.55A, α2AAR-Y409^6.55F, α2AAR-F427^7.39F, α2AAR-Y431^7.43A, and α2AAR-Y431^7.43F mutations on arrestin recruitment was evaluated as described above transfecting the appropriate receptor together with CAAX-rGFP, GRK2 and β-arrestin-2-RLucII. Data was analyzed as ligand induced changes in BRET compared to vehicle (deltaBRET). Three to seven experiments were done in duplicate.

SNI mice = assay: Spared-nerve injury (SNI) model of neuropathic pain, von Frey mechanical thresholds; assay type: in vivo
Procedure: Spared-nerve injury (SNI) model of neuropathic pain. Under isoflurane anesthesia, two of the three branches of the sciatic nerve were ligated and transected distally, leaving the sural nerve intact. Behavior was tested 7 to 14 days after injury and in situ hybridization was performed one week post-injury.

[2] = mouse, plasma, ip, I.P. 10 mg/kg

Compound: Fc1cccc2c(Nc3ccncc3)cccc12 [Compound 7075, N-(5-fluoronaphthalen-1-yl)pyridin-4-amine]
- Fold greater CSF Cmax than PS75 ([1]; 10 mg/kg i.p.): 4 fold
- half-life ([1]; C57BL/6N ('9087, '7075, '4622), CD-1 (PS75), mouse, CSF, ip, I.P. 10 mg/kg, read-out: T ½ CSF (converted)): 13.2 min
- AUC Brain ([1]; I.P. 10 mg/kg): 814000 ng·min/mL
- AUC CSF ([1]; I.P. 10 mg/kg): 12000 ng·min/mL
- Cmax Brain ([1]; I.P. 10 mg/kg): 8570 ng/mL
- Cmax CSF ([1]; I.P. 10 mg/kg): 412 ng/mL
- half-life ([1]; mouse, brain, ip, I.P. 10 mg/kg, read-out: T ½ Brain (converted)): 43.8 min
- AUC [1, 2]: 952 ng·h/mL
- Cmax [1, 2]: 694 ng/mL
- half-life ([1]; mouse, plasma, ip, I.P. 10 mg/kg, read-out: T ½ Plasma (converted)): 38.4 min
- Fold improvement of Gi potency at S215^5.42A (α2AAR-S215^5.42A): 11 fold
- Effect of atipamezole on the agonist's effect in SNI mice (SNI mice; atipamezole 2 mg/kg, 15 minutes prior): reversed by atipamezole
- Mechanical thresholds / anti-allodynic effect in SNI mice (SNI mice; systemic injection): exhibited anti-allodynic effects
- Reversal of mechanical hypersensitivity in SNI mice (SNI mice; systemic injection): completely reversed the mechanical hypersensitivity
